Measurements: PubChem BioAssay (NCI)
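1) Cells in 96-well plates. 2) Compound, 48 h, 5 concentrations. 3) Linear interpolation between surrounding doses. 4) Unreached endpoint = highest concentration. TGI is the concentration that stops growth completely.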

Assays:
Assay in all cases: DTP human tumour cell line panel, 48 h
786-0 renal = system: 786-0 renal
A498 renal = system: A498 renal
A549 NSCLC = system: A549 NSCLC
ACHN renal = system: ACHN renal
BT-549 breast = system: BT-549 breast
CAKI-1 renal = system: CAKI-1 renal
CCRF-CEM leukemia = system: CCRF-CEM leukemia
COLO 205 colon = system: COLO 205 colon
DU-145 prostate = system: DU-145 prostate
EKVX NSCLC = system: EKVX NSCLC
HCC-2998 colon = system: HCC-2998 colon
HCT-116 colon = system: HCT-116 colon
HCT-15 colon = system: HCT-15 colon
HL-60(TB) leukemia = system: HL-60(TB) leukemia
HOP-92 NSCLC = system: HOP-92 NSCLC
HS 578T breast = system: HS 578T breast
HT29 colon = system: HT29 colon
IGROV1 ovarian = system: IGROV1 ovarian
K-562 leukemia = system: K-562 leukemia
KM12 colon = system: KM12 colon
LOX IMVI melanoma = system: LOX IMVI melanoma
M14 melanoma = system: M14 melanoma
MALME-3M melanoma = system: MALME-3M melanoma
MCF7 breast = system: MCF7 breast
MDA-MB-231 breast = system: MDA-MB-231 breast
MDA-MB-435 = system: MDA-MB-435
MDA-N = system: MDA-N
MOLT-4 leukemia = system: MOLT-4 leukemia
NCI-H226 lung = system: NCI-H226 lung
NCI-H23 lung = system: NCI-H23 lung
NCI-H460 lung = system: NCI-H460 lung
NCI-H522 lung = system: NCI-H522 lung
NCI/ADR-RES ovarian = system: NCI/ADR-RES ovarian
OVCAR-3 ovarian = system: OVCAR-3 ovarian
OVCAR-4 ovarian = system: OVCAR-4 ovarian
OVCAR-5 ovarian = system: OVCAR-5 ovarian
OVCAR-8 ovarian = system: OVCAR-8 ovarian
PC-3 prostate = system: PC-3 prostate
RPMI-8226 leukemia = system: RPMI-8226 leukemia
RXF 393 renal = system: RXF 393 renal
SF-268 CNS = system: SF-268 CNS
SF-295 CNS = system: SF-295 CNS
SF-539 CNS = system: SF-539 CNS
SK-MEL-2 melanoma = system: SK-MEL-2 melanoma
SK-MEL-28 melanoma = system: SK-MEL-28 melanoma
SK-MEL-5 melanoma = system: SK-MEL-5 melanoma
SK-OV-3 ovarian = system: SK-OV-3 ovarian
SN12C renal = system: SN12C renal
SNB-19 CNS = system: SNB-19 CNS
SNB-75 CNS = system: SNB-75 CNS
SW-620 colon = system: SW-620 colon
T-47D breast = system: T-47D breast
TK-10 renal = system: TK-10 renal
U251 CNS = system: U251 CNS
UACC-257 melanoma = system: UACC-257 melanoma
UACC-62 melanoma = system: UACC-62 melanoma
UO-31 renal = system: UO-31 renal
HOP-62 NSCLC = system: HOP-62 NSCLC

For `CC[C@@]1(O)C(=O)OCc2c1cc1n(c2=O)Cc2c-1nc1ccccc1c2/C=N\NC(=O)C[n+]1ccccc1`, the TGI (786-0 renal) was greater than 27.8 µM, the TGI (A498 renal) was 21.4 µM and the TGI (A549 NSCLC) was greater than 100 µM. The TGI (ACHN renal) was 1.27 µM, the TGI (BT-549 breast) was greater than 100 µM and the TGI (CAKI-1 renal) was 20 µM. The TGI (CCRF-CEM leukemia) was greater than 100 µM, the TGI (COLO 205 colon) was greater than 100 µM and the TGI (DU-145 prostate) was 14.3 µM. The TGI (EKVX NSCLC) was greater than 100 µM, the TGI (HCC-2998 colon) was greater than 100 µM and the TGI (HCT-116 colon) was greater than 38.1 µM. For the same compound, the TGI (HCT-15 colon) was greater than 100 µM, the TGI (HL-60(TB) leukemia) was greater than 34.4 µM and the TGI (HOP-92 NSCLC) was greater than 31.6 µM. The TGI (HS 578T breast) was greater than 100 µM, the TGI (HT29 colon) was greater than 66.3 µM and the TGI (IGROV1 ovarian) was greater than 100 µM. It also gave a TGI (K-562 leukemia) greater than 100 µM, a TGI (KM12 colon) greater than 100 µM and a TGI (LOX IMVI melanoma) of 6 µM. For the same compound, the TGI (M14 melanoma) was 6.37 µM, the TGI (MALME-3M melanoma) was greater than 100 µM and the TGI (MCF7 breast) was 16.2 µM. The TGI (MDA-MB-231 breast) was greater than 100 µM, the TGI (MDA-MB-435) was greater than 100 µM and the TGI (MDA-N) was greater than 100 µM. The TGI (MOLT-4 leukemia) was 11.7 µM, the TGI (NCI-H226 lung) was greater than 29.7 µM and the TGI (NCI-H23 lung) was 7.71 µM. It also gave a TGI (NCI-H460 lung) of 9.75 µM, a TGI (NCI-H522 lung) greater than 43.5 µM and a TGI (NCI/ADR-RES ovarian) greater than 100 µM. For the same compound, the TGI (OVCAR-3 ovarian) was greater than 79.4 µM, the TGI (OVCAR-4 ovarian) was greater than 100 µM and the TGI (OVCAR-5 ovarian) was greater than 65.7 µM. For the same compound, the TGI (OVCAR-8 ovarian) was greater than 68.7 µM, the TGI (PC-3 prostate) was greater than 100 µM and the TGI (RPMI-8226 leukemia) was greater than 100 µM. It also gave a TGI (RXF 393 renal) of 2.79 µM, a TGI (SF-268 CNS) greater than 69.5 µM and a TGI (SF-295 CNS) greater than 21.3 µM. The TGI (SF-539 CNS) was 0.971 µM, the TGI (SK-MEL-2 melanoma) was greater than 89.6 µM and the TGI (SK-MEL-28 melanoma) was greater than 100 µM. For the same compound, the TGI (SK-MEL-5 melanoma) was 2.09 µM, the TGI (SK-OV-3 ovarian) was greater than 100 µM and the TGI (SN12C renal) was greater than 69 µM. It also gave a TGI (SNB-19 CNS) of 19.1 µM, a TGI (SNB-75 CNS) greater than 28.2 µM and a TGI (SW-620 colon) greater than 100 µM. For the same compound, the TGI (T-47D breast) was 2.9 µM, the TGI (TK-10 renal) was greater than 100 µM and the TGI (U251 CNS) was 32 µM. For the same compound, the TGI (UACC-257 melanoma) was greater than 84.5 µM, the TGI (UACC-62 melanoma) was 1.22 µM and the TGI (UO-31 renal) was 2.56 µM.

`OC1=C2c3ccccc3NC2Oc2cc(F)ccc21` (stereo unspecified) gave a TGI (786-0 renal) of 29.9 µM, a TGI (A498 renal) of 32.4 µM and a TGI (A549 NSCLC) of 52.7 µM. The TGI (ACHN renal) was 46.7 µM, the TGI (BT-549 breast) was 48.2 µM and the TGI (CAKI-1 renal) was 48.4 µM. The TGI (CCRF-CEM leukemia) was 7.21 µM, the TGI (COLO 205 colon) was 27.6 µM and the TGI (DU-145 prostate) was 37.5 µM. The TGI (EKVX NSCLC) was 22.4 µM, the TGI (HCC-2998 colon) was 32.4 µM and the TGI (HCT-116 colon) was 28.7 µM. For the same compound, the TGI (HCT-15 colon) was 37.3 µM, the TGI (HOP-62 NSCLC) was 33.2 µM and the TGI (HOP-92 NSCLC) was 54.1 µM. The TGI (HS 578T breast) was greater than 100 µM, the TGI (HT29 colon) was 38 µM and the TGI (IGROV1 ovarian) was greater than 100 µM. For the same compound, the TGI (K-562 leukemia) was 48.5 µM, the TGI (KM12 colon) was 31.2 µM and the TGI (LOX IMVI melanoma) was 39.3 µM. The TGI (M14 melanoma) was 31.8 µM, the TGI (MALME-3M melanoma) was 48.5 µM and the TGI (MCF7 breast) was greater than 100 µM. For the same compound, the TGI (MDA-MB-231 breast) was 33 µM, the TGI (MDA-MB-435) was 33.9 µM and the TGI (MDA-N) was 31.4 µM. For the same compound, the TGI (MOLT-4 leukemia) was 34.5 µM, the TGI (NCI-H226 lung) was 89.5 µM and the TGI (NCI-H23 lung) was 36 µM. For the same compound, the TGI (NCI-H460 lung) was 38.5 µM, the TGI (NCI-H522 lung) was 52.8 µM and the TGI (NCI/ADR-RES ovarian) was 47.3 µM. For the same compound, the TGI (OVCAR-3 ovarian) was 27.9 µM, the TGI (OVCAR-4 ovarian) was 50.6 µM and the TGI (OVCAR-5 ovarian) was 38.2 µM. For the same compound, the TGI (OVCAR-8 ovarian) was greater than 100 µM, the TGI (PC-3 prostate) was 41.4 µM and the TGI (RXF 393 renal) was 38.3 µM. The TGI (SF-268 CNS) was 40.3 µM, the TGI (SF-295 CNS) was 29.5 µM and the TGI (SK-MEL-2 melanoma) was 41.8 µM. For the same compound, the TGI (SK-MEL-28 melanoma) was greater than 100 µM, the TGI (SK-MEL-5 melanoma) was 28.2 µM and the TGI (SK-OV-3 ovarian) was 26.6 µM. For the same compound, the TGI (SN12C renal) was 25.9 µM, the TGI (SNB-19 CNS) was 44.6 µM and the TGI (SW-620 colon) was 47.9 µM. The TGI (T-47D breast) was 68.1 µM, the TGI (TK-10 renal) was 47.1 µM and the TGI (U251 CNS) was 29.6 µM. The TGI (UACC-257 melanoma) was 41.4 µM, the TGI (UACC-62 melanoma) was 34.7 µM and the TGI (UO-31 renal) was 28.2 µM.
